Results: patent publication US10065954B2, “Substituted imidazo[4,5-c]pyridines as SSAO inhibitors” (Proximagen Limited, priority 2014, dated 2018)

Experiments:
[1] = molecular target: T1, purified recombinantly expressed human SSAO (Homo sapiens, UniProt Q16853); assay: SSAO enzyme inhibition assay (benzylamine substrate; hydrogen peroxide/HRP-coupled or 14C-aldehyde detection); format: biochemical; conditions: SSAO inhibitory activity; recombinant human SSAO, RT
T1 construct: made in house
T1 sequence (Q16853 1-763): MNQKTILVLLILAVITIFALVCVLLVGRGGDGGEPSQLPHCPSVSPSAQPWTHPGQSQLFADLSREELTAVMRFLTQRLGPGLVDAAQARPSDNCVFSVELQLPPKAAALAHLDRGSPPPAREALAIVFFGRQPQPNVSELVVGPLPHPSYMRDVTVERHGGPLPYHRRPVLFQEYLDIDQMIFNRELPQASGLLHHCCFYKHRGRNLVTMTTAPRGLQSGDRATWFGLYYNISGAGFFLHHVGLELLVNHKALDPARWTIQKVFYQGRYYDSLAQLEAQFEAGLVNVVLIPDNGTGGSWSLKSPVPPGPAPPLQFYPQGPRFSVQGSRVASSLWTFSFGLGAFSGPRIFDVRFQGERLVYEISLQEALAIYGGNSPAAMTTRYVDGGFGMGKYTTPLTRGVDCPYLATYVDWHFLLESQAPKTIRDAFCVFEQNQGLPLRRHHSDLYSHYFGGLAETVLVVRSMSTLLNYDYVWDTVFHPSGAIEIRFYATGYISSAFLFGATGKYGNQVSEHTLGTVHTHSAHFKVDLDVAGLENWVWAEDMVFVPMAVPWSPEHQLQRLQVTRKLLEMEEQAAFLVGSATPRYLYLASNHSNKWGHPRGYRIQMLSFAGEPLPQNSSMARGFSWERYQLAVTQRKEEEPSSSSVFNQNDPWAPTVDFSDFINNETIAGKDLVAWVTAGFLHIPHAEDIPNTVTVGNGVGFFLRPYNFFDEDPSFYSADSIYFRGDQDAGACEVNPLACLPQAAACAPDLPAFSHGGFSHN
Procedure: All primary assays were performed at RT. with purified recombinantly expressed human SSAO. Enzyme was prepared essentially as described in Öhman et al. (Protein Expression and Purification 46 (2006) 321-331). In addition, secondary- and selectivity assays were performed using SSAO prepared from various tissues or purified rat recombinant SSAO. The enzyme activity was assayed with benzylamine as substrate by measuring either benzaldehyde production, using ^14C-labeled substrate, or by utilizing the production of hydrogen peroxide in a horseradish peroxidase (HRP) coupled reaction. Briefly, test compounds were dissolved in dimethyl sulfoxide (DMSO) to a concentration of 10 mM. Dose-response measurements were assayed by either creating 1:10 serial dilutions in DMSO to produce a 7 point curve or by making 1:3 serial dilutions in DMSO to produce 11 point curves. The top concentrations were adjusted depending on the potency of the compounds and subsequent dilution in reaction buffer yielded a final DMSO concentration ≤2%.
In a horseradish peroxidase (HRP) coupled reaction, hydrogen peroxide oxidation of 10-acetyl-3,7-dihydroxyphenoxazine produced resorufin, which is a highly fluorescent compound (Zhout and Panchuk-Voloshina. Analytical Biochemistry 253 (1997) 169-174; Amplex® Red Hydrogen Peroxide/peroxidase Assay kit, Invitrogen A22188). Enzyme and compounds in 50 mM sodium phosphate, pH 7.4 were set to pre-incubate in flat-bottomed microtiter plates for approximately 15 min before initiating the reaction by addition of a mixture of HRP, benzylamine and Amplex reagent. Benzylamine concentration was fixed at a concentration corresponding to the Michaelis constant, determined using standard procedures. Fluorescence intensity was then measured at several time points during 1-2 h, exciting at 544 nm and reading the emission at 590 nm. For the human SSAO assay final concentrations of the reagents in the assay wells were: SSAO enzyme 1 ug/mL, benzylamine 100 uM, Amplex reagent 20 uM, HRP 0.1 U/mL and varying concentrations of test compound. The inhibition was measured as % decrease of the signal compared to a control without inhibitor (only diluted DMSO). The background signal from a sample containing no SSAO enzyme was subtracted from all data points. Data was fitted to a four parameter logistic model and IC50 values were calculated using the GraphPad Prism 4 or XLfit 4 programs.
SSAO activity was assayed using […] benzylamine and analysed by measuring radioactive benzaldehyde. In a white 96-well optiplate (Packard), 20 uL of diluted test compound was pre-incubated at RT with 20 uL SSAO enzyme for approximately 15 min with continuous agitation. All dilutions were made with PBS. The reaction was initiated by adding 20 uL of the benzylamine substrate solution containing Benzylamine hydrochloride (CFA589, GE Healthcare). The plate was incubated for 1 h as above after which the reaction was stopped by acidification (10 uL 1M aq HCl). Then 90 uL Micro Scint-E solution (Perkin-Elmer) was added to each well and the plate was continuously mixed for 15 min. Phase separation occurred instantly and activity was read in a Topcount scintillation counter (Perkin-Elmer). In the final reaction well, the human recombinant SSAO concentration was 10 ug/mL. In order to optimize sensitivity, the substrate concentration was decreased as compared to the HRP coupled assay in order to get a higher fraction of radioactive product. In the human SSAO assay, benzylamine concentration was 40 uM (0.2uCi/mL). Data was analysed as above.

[2] = molecular target: T2, human ether a go-go related gene (hERG) K+ channel (Homo sapiens, UniProt Q12809); assay: hERG assay, IonWorks patch clamp electrophysiology; format: cell-based; conditions: Chinese Hamster Lung cell line stably expressing hERG; max assay concentration 11 uM
T2 construct: Chinese Hamster Lung cell line stably expressing the full length hERG channel; expressed in transfected cells; host or cells: Chinese Hamster Lung cell line
Procedure: Compounds of the invention were tested for inhibition of the human ether a go-go related gene (hERG) K^+ channel using IonWorks patch clamp electrophysiology. 8 Point concentration-response curves were generated on two occasions using 3-fold serial dilutions from the maximum assay concentration (11 uM). Electrophysiological recordings were made from a Chinese Hamster Lung cell line stably expressing the full length hERG channel. Single cell ion currents were measured in the perforated patch clamp configuration (100 ug/mL amphoterocin) at RT using an IonWorks Quattro instrument. The internal solution contained 140 mM KCl, 1 mM MgCl2, 1 mM EGTA and 20 mM HEPES and was buffered to pH 7.3. The external solution contained 138 mM NaCl, 2.7 mM KCl, 0.9 mM CaCl2, 0.5 mM MgCl2, 8 mM Na2HPO4 and 1.5 mM KH2PO4, and was buffered to pH 7.3. Cells were clamped at a holding potential of […] for 30 s and then stepped to +40 mV for 1 s. This was followed by a hyperpolarising step of 1 s to […] to evoke the hERG tail current. This sequence was repeated 5 times at a frequency of 0.25 Hz. Currents were measured from the tail step at the 5th pulse, and referenced to the holding current. Compounds were incubated for 6-7 min prior to a second measurement of the hERG signal using an identical pulse train. A minimum of 17 cells were required for each pIC50 curve fit. A control compound (quinidine) was used (see Table 13 below).

T2 sequence (Q12809 whole entry): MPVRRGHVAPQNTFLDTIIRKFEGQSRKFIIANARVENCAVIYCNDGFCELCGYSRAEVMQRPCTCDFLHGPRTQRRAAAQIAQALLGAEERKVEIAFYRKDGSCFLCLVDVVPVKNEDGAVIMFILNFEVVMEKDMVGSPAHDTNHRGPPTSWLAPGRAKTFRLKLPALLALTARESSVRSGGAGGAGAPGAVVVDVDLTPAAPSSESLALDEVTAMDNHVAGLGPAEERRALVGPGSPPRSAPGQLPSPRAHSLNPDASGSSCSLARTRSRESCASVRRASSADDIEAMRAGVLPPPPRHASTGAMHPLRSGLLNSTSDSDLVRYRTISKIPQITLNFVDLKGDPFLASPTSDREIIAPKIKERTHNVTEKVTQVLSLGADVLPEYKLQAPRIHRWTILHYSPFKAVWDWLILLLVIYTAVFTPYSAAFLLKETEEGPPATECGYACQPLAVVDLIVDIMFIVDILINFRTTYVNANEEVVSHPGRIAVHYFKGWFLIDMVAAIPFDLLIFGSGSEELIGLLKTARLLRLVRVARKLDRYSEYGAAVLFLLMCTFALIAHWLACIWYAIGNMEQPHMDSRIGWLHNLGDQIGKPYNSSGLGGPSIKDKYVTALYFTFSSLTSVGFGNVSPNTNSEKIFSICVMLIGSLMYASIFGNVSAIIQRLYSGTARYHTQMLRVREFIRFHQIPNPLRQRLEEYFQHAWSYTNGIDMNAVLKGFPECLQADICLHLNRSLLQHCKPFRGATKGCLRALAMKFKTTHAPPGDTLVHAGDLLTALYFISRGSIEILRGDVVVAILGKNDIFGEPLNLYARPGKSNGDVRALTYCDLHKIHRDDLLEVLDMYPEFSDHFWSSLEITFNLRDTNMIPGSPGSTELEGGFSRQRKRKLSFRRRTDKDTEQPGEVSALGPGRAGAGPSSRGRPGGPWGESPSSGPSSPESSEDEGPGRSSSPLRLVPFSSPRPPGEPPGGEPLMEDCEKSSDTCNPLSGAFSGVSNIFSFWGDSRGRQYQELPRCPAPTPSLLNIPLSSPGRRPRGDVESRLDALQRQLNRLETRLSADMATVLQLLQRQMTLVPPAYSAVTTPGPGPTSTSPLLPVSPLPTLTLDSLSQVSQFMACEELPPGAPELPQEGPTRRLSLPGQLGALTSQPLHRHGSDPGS

| Structure (SMILES) | IC50 [1] | IC50 [2] |
| --- | --- | --- |
| Cc1ccc(-n2c(-c3ccc(NC4CCOCC4)nc3)nc3ccncc32)cc1 [Compound 10, 5-[3-(4-Methylphenyl)-3H-imidazo[4,5-c]pyridin-2-yl]-N-(oxan-4-yl)pyridin-2-amine] | < 50 nM | > 10000 nM |
| Cc1cc(N2CCOCC2)ncc1-c1nc2ccncc2n1-c1ccc(Cl)cn1 [Compound 12, 4-{5-[3-(5-Chloropyridin-2-yl)-3H-imidazo[4,5-c]pyridin-2-yl]-4-methylpyridin-2-yl}morpholine] | < 50 nM | > 10000 nM |
| Fc1ccc(-n2c(-c3ccc(NC4CCOCC4)nc3)nc3ccncc32)cc1 [Compound 15, 5-[3-(4-Fluorophenyl)-3H-imidazo[4,5-c]pyridin-2-yl]-N-(oxan-4-yl)pyridin-2-amine] | < 50 nM | > 10000 nM |
| Cc1ccc(-n2c(-c3ccc(NC4CC4)nc3)nc3ccncc32)cc1 [Compound 17, N-Cyclopropyl-5-[3-(4-methylphenyl)-3H-imidazo[4,5-c]pyridin-2-yl]pyridin-2-amine] | < 50 nM | > 10000 nM |
| Cc1ccc(-n2c(-c3ccc(N4CCCC4)nc3)nc3ccncc32)cn1 [Compound 18, 5-[3-(6-Methylpyridin-3-yl)-3H-imidazo[4,5-c]pyridin-2-yl]-2-(pyrrolidin-1-yl)pyridine] | < 50 nM | > 10000 nM |
| Cc1ccc(-n2c(-c3ccc(N4CCC(F)CC4)nc3)nc3ccncc32)cn1 [Compound 19, 2-(4-Fluoropiperidin-1-yl)-5-[3-(6-methylpyridin-3-yl)-3H-imidazo[4,5-c]pyridin-2-yl]pyridine] | < 50 nM | > 10000 nM |
| Cc1ccc(-n2c(-c3ccc(NCCN4CCOCC4)nc3)nc3ccncc32)cc1 [Compound 21, 5-[3-(4-Methylphenyl)-3H-imidazo[4,5-c]pyridin-2-yl]-N-[2-(morpholin-4-yl)ethyl]pyridin-2-amine] | < 50 nM | > 10000 nM |
| Cc1ccc(-n2c(-c3ccc(NC4CCOCC4)cc3)nc3ccncc32)cn1 [Compound 35, N-{4-[3-(6-Methylpyridin-3-yl)-3H-imidazo[4,5-c]pyridin-2-yl]phenyl}oxan-4-amine] | 200 to 1200 nM |  |
| Cc1ccc(-n2c(-c3ccc(N4CCCC4)cc3)nc3ccncc32)nc1 [Compound 36, 5-Methyl-2-{2-[4-(pyrrolidin-1-yl)phenyl]-3H-imidazo[4,5-c]pyridin-3-yl}pyridine] | 50 to 200 nM |  |
| Cc1ccc(-n2c(-c3ccc(N4CCC(F)CC4)cc3)nc3ccncc32)cn1 [Compound 37, 5-{2-[4-(4-Fluoropiperidin-1-yl)phenyl]-3H-imidazo[4,5-c]pyridin-3-yl}-2-methylpyridine] | 50 to 200 nM |  |
| Clc1ccc(-n2c(-c3ccc(Cl)nc3)nc3ccncc32)cc1 [Compound 38, 2-Chloro-5-[3-(4-chlorophenyl)-3H-imidazo[4,5-c]pyridin-2-yl]pyridine] | 200 to 1200 nM |  |
| Fc1ccc(-n2c(-c3ccc(Cl)nc3)nc3ccncc32)cc1 [Compound 39, 2-Chloro-5-[3-(4-fluorophenyl)-3H-imidazo[4,5-c]pyridin-2-yl]pyridine] | 200 to 1200 nM |  |
